≈ marks a conversion by molar mass, not a printed value. Where two headings read alike, the source gives them in different places.
Columns and labels:
LNCaP = assay: MTT viability assay, LNCaP prostate cancer cells; assay type: cell-based, human; conditions: for Cell viability: 24 h; for IC50: Homo sapiens
Description: (§1) Cell lines of different origins were used in the study and grouped as follows: prostate panel (human prostate carcinomas: DU145, derived from metastatic site: brain; grade IV PC3, derived from metastatic site: bone; LNCaP, derived from the metastatic site: lymph node; prostate epithelial, PNT2), colon panel (colorectal adenocarcinomas: HT29, originating from a primary tumor; Duke’s type C DLD-1, with the potential to lymph node metastasis; highly metastatic HCT116; colon epithelial cells CCD 841 CoN), thyroid panel (follicular thyroid carcinoma FTC133, anaplastic thyroid carcinoma 8505C, papillary thyroid carcinoma TPC-1, normal thyroid follicular epithelial Nthy-ori 3–1), breast panel (ER-positive breast adenocarcinoma MCF7, ER-negative breast adenocarcinoma MDA-MB-231, breast epithelial MCF10A), brain panel (neuroblastoma SH-SY5Y, glioblastoma U-87 MG, murine astrocytes C8D1A). All cell lines were purchased from Merck (Darmstadt, Germany).
(§2) Cells were grown under standard conditions (37 °C, 5% CO2) and culture media (DMEM/F12 for PNT2, PC3, FTC133, 8505 C, MDA-MB-231, TPC-1; DMEM Low Glucose for DU145; DMEM High Glucose for HCT116, DLD-1, SH-SY5Y, U87MG, C8D1A; MEM with NEAA for MCF7; MEM for CCD 841 CoN; McCoy’s for HT29; RPMI1640 with sodium pyruvate for LNCaP; DMEM/F12 with 20 ng/mL epidermal growth factor (EGF), 10 μg/mL insulin, 0.5 μg/mL hydrocortisone, 100 ng/mL cholera toxin) for MCF10A), supplemented with 10% fetal bovine serum (FBS) or 5% donor horse serum for MCF10A, and 1% antibiotics solution (10,000 U penicillin and 10 mg streptomycin/mL). The tested substances were prepared as 10 mg/mL stock solutions in DMSO and further diluted in the culture media to the working concentrations. Cells were treated with UA enantiomers at the concentration range of 0–50 µg/mL. The influence of DMSO on cell viability was also examined, with the final concentration […], and no toxic effect was noted.
(§3) The cells were seeded onto 96-well plates at a density of 1.5 × 10^4 cells/well. After 24 h UA enantiomers were added. Cell viability was determined after 24, 48, and 72 h by the MTT assay, as described previously. Doxorubicin was used as a reference cytostatic drug. All analyses were performed in triplicate; cell viability was expressed as % of control, untreated cells (mean ± SD), and IC50 values (concentration at which cell viability is inhibited by 50%), if possible.

U87MG = assay: MTT viability assay, glioblastoma U87MG cells; assay type: cell-based, human; conditions: 24 h
Description: as §1, §2, §3

HCT116 cells = conditions: cited from earlier work
DLD1 cells = conditions: DLD1, 48 h, cited from earlier work
LNCaP cells = tested on: LNCaP cells; parameters: method as in PMID 30101414; conditions: 48 h, cited from earlier work
MCF7 cells = tested on: MCF7 cells; parameters: method as in not printed ('another' study); conditions: MCF7, 72 h, ref not given ('another' study), cited from earlier work
MDA-MB-231 cells = conditions: cited from earlier work
glioblastoma U251 cells = tested on: glioblastoma U251 cells; parameters: method as in PMID 18558490; conditions: U251, 72 h, cited from earlier work
U87MG cells = conditions: cited from earlier work; for CC50: 24 h
[1] = tested on: SH-SY5Y neuroblastoma cells; conditions: cited from earlier work
A375 cells = tested on: A375 cells; parameters: method as in PMID 34577645; conditions: A375, 48 h; cited from earlier work
HTB140 cells = tested on: HTB140 cells; parameters: method as in PMID 34577645; conditions: HTB140, 48 h (implied); cited from earlier work
A172 = tested on: A172; parameters: method as in PMID 34959693; conditions: cited from earlier work
T98G = tested on: T98G; parameters: method as in PMID 34959693; conditions: cited from earlier work
HaCaT keratinocytes = tested on: HaCaT keratinocytes; parameters: method as in PMID 34500657; conditions: cited from earlier work
[2] = recalculated from µM by the authors

Row | SMILES | Cell viability (LNCaP; 2.5 µg/mL) | Cell viability (LNCaP; 5 µg/mL) | Cell viability (LNCaP; 10 µg/mL) | Cell viability (LNCaP; 20 µg/mL) | Cell viability (LNCaP; 30 µg/mL) | Cell viability (LNCaP; 40 µg/mL) | Cell viability (LNCaP; 50 µg/mL) | IC50 (LNCaP; 48 h) [µg/mL] | IC50 (LNCaP; 72 h) [µg/mL] | Cell viability (U87MG; 5 µg/mL) | Cell viability (U87MG; 10 µg/mL) | Cell viability (U87MG; 30 µg/mL) | Cell viability (U87MG; 40 µg/mL) | Cell viability (U87MG; 50 µg/mL) | IC50 (MCF7 cells; [2]) [µg/mL] | IC50 (MCF7 cells; read-out: IC50) [µM] | IC50 (glioblastoma U251 cells; [2]) [µg/mL] | IC50 (glioblastoma U251 cells; read-out: IC50) [µM] | further results
1 | CC(=O)C1=C(O)C=C2Oc3c(C(C)=O)c(O)c(C)c(O)c3[C@@]2(C)C1=O [UA(+), (+)-usnic acid] | 87.68 % of control | 81.45 % of control | 79.71 % of control | 75.51 % of control | 71.45 % of control | 69.13 % of control | 69.71 % of control | > 50 | > 50 | 99.21 % of control | 98.61 % of control | 101.76 % of control | 92.73 % of control | 95.00 % of control | 36.3 | 105 | 6.7 | 19.5 | IC50 (HCT116 cells; HCT116, 48 h, recalculated from µM by the authors): 34.4 µg/mL; IC50 (HCT116 cells; HCT116, 48 h, read-out: IC50): 100 µM; IC50 (HCT116 cells; HCT116, 72 h, recalculated from µM by the authors): 49.24 µg/mL; IC50 (HCT116 cells; HCT116, 72 h, read-out: IC50): 143 µM; IC50 (DLD1 cells; [2]): 34.4 µg/mL; IC50 (DLD1 cells; read-out: IC50): 100 µM; IC50 (LNCaP cells; read-out: IC50): 77.5 µM; IC50 (LNCaP cells; [2]): 26.7 µg/mL; IC50 (MDA-MB-231 cells; MDA-MB-231, 24 h, recalculated from µM by the authors): 13.23 µg/mL; IC50 (MDA-MB-231 cells; MDA-MB-231, 24 h, read-out: IC50): 38.4 µM; IC50 (MDA-MB-231 cells; MDA-MB-231, 72 h, recalculated from µM by the authors): 4.5 µg/mL; IC50 (MDA-MB-231 cells; MDA-MB-231, 72 h, read-out: IC50): 13.1 µM; CC50 (U87MG cells; read-out: CC50): 47 µM; CC50 (U87MG cells; [2]): 16 µg/mL; IC50 (U87MG cells; 48 h): 41.5 µg/mL (≈ 121 µM); Cell viability ([1]; at 2 µg/mL): 42%; Cell viability ([1]; at 10 µg/mL): 57%; IC50 (A375 cells): 11.84 µg/mL (≈ 34.4 µM); IC50 (HTB140 cells): 14.72 µg/mL (≈ 42.8 µM)
2 | CC(=O)C1=C(O)C=C2Oc3c(C(C)=O)c(O)c(C)c(O)c3[C@]2(C)C1=O [UA(−), (−)-usnic acid] | 100.45 % of control | 98.18 % of control | 88.48 % of control | 85.30 % of control | 81.97 % of control | 79.09 % of control | 89.39 % of control | > 50 | > 50 | 102.19 % of control | 101.69 % of control | 111.54 % of control | 106.02 % of control | 98.56 % of control | 17.8 | 51.7 | 6.8 | 19.7 | Cell viability (U87MG; 2.5 µg/mL): 102.34 % of control; Cell viability (U87MG; 20 µg/mL): 101.59 % of control; IC50 (A172): 31.5 µg/mL (≈ 91.5 µM); IC50 (T98G): 13 µg/mL (≈ 37.8 µM); IC50 (HaCaT keratinocytes; 48 h): 80.82 µg/mL (≈ 235 µM); IC50 (HaCaT keratinocytes; 72 h): 70.12 µg/mL (≈ 204 µM)

Reference: publication PMC12298648, “An Evaluation of the Cytotoxicity and Safety Profile of Usnic Acid for a Broad Panel of Human Cancers and Normal Cells with Respect to Its Enantiospecificity” (Molecules, 2025)
